# From US7138361B2, “Herbicidal heterocycles” (E. I. du Pont de Nemours and Company, priority 2000, dated 2006)
# Experiments:
# Assay type in all cases: in vivo
# rice (Oryza saliva) = test: Test B flooded paddy test; details: Rate 1000 g/ha, scale of 0 to 100 where 0 is no effect and 100 is complete control, visually evaluated after 13 to 15 days
# In short: (§1)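 Greenhouse-held for 13 to 15 days after treatment at the 2-leaf stage, paddy-grown plants were scored visually against controls on a 0-to-100 control scale; a dash marks no test result.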
# [1] = system: smallflower flatsedge (Cyperus difformis); test: Test B flooded paddy test; details: Rate 1000 g/ha, scale of 0 to 100 where 0 is no effect and 100 is complete control, visually evaluated after 13 to 15 days
# In short: as §1
# [2] = system: duck salad (Heteranthera limosa); test: Test B flooded paddy test; details: Rate 1000 g/ha, scale of 0 to 100 where 0 is no effect and 100 is complete control, visually evaluated after 13 to 15 days
# In short: as §1
# [3] = system: barnyardgrass (Echinochloa crus-galli); test: Test B flooded paddy test; details: Rate 1000 g/ha, scale of 0 to 100 where 0 is no effect and 100 is complete control, visually evaluated after 13 to 15 days
# In short: as §1
# [4] = system: giant foxtail (Setaria viridis); test: Test A postemergence, sprayed to runoff; details: approx. eleven days
# Experimental: (§2) Seeds of barnyardgrass (Echinochloa crus-galli), crabgrass (Digitaria spp.), giant foxtail (Setaria viridis), morning glory (Ipomoea spp.), redroot pigweed (Amaranthus retroflexus) and velvetleaf (Abutilon theophrasti) were planted into a sandy loam soil and treated preemergence by soil drench with test chemicals formulated in a non-phytotoxic solvent mixture which included a surfactant. At the same time, these crop and weed species were also treated postemergence sprayed to runoff with test chemicals formulated in the same manner. Plants ranged in height from two to eighteen cm and were in the one- to two-leaf stage for the postemergence treatment. Treated plants and untreated controls were maintained in a greenhouse for approximately eleven days, after which time all treated plants were compared to untreated controls and visually evaluated for injury. Plant response ratings, summarized in Table A, are based on a 0 to 10 scale where 0 is no effect and 10 is complete control. A dash (-) response means no test results.
# [5] = system: barnyardgrass (Echinochloa crus-galli); test: Test A postemergence, sprayed to runoff; details: approx. eleven days
# Experimental: as §2
# [6] = system: redroot pigweed (Amaranthus retroflexus); test: Test A postemergence, sprayed to runoff; details: approx. eleven days
# Experimental: as §2
# [7] = system: crabgrass (Digitaria spp.); test: Test A postemergence, sprayed to runoff; details: approx. eleven days
# Experimental: as §2
# [8] = system: pigweed (Amaranthus retroflexus); test: Test B postemergence
# In short: (§3)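 Post-treatment, species sat 13–15 days under greenhouse conditions before visual scoring against controls, 0 (no effect) through 100 (complete control). Application preemergence to sown seeds or postemergence at 1- to 4-leaf stage, using a non-phytotoxic solvent/surfactant formulation.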
# [9] = system: lambsquarters (Chenopodium album); test: Test B postemergence
# In short: as §3
# [10] = system: Surinam grass (Brachiaria decumbens); test: Test B postemergence
# In short: as §3
# [11] = system: crabgrass (Digitaria sanguinalis); test: Test B postemergence
# In short: as §3
# [12] = system: velvetleaf (Abutilon theophrasti); test: Test B postemergence
# In short: as §3
# [13] = system: cocklebur (Xanthium strumarium); test: Test B postemergence
# In short: as §3
# [14] = system: blackgrass (Alopecurus myosuroides); test: Test B postemergence
# In short: as §3
# [15] = system: giant foxtail (Setaria faberii); test: Test B postemergence
# In short: as §3
# [16] = system: morning glory (Ipomoea hederacea); test: Test B postemergence
# In short: as §3
# [17] = Rate 125 g/ha, scale 0 (no effect) to 100 (complete control), 13 to 15 days
# [18] = Rate 500 g/ha, scale 0 to 100, 0 is no effect, 100 is complete control, 13 to 15 days
# [19] = Rate 62 g/ha, scale 0 to 100, 0 no effect, 100 complete control
# [20] = Rate 250 g/ha, scale 0 (no effect) to 100 (complete control), 13 to 15 days
structure (smiles),measurement,setting,value
"CC(C)(C)c1ccn(C2CCN(c3cccc(C(F)(F)F)c3)C2=O)n1 (stereo not shown) [Example 3, 3-[3-(1,1-dimethylethyl)-1H-pyrazol-1-yl]-1-[3-(trifluoromethyl)phenyl]-2-pyrrolidinone]","Plant response rating, Rice",rice (Oryza saliva),90
same,"Plant response rating, Flatsedge",[1],100
same,"Plant response rating, Ducksalad",[2],100
same,"Plant response rating, Barnyardgrass",[3],100
same,Plant response rating (visual injury vs untreated controls),[4]; Rate 250 g/ha,0
same,Plant response rating (visual injury vs untreated controls),[4]; Rate 1000 g/ha,10
same,Plant response rating (visual injury vs untreated controls),[5]; Rate 250 g/ha,20
same,Plant response rating (visual injury vs untreated controls),[5]; Rate 1000 g/ha,10
same,Plant response rating (visual injury vs untreated controls),[6]; Rate 250 g/ha,60
same,Plant response rating (visual injury vs untreated controls),[6]; Rate 1000 g/ha,10
same,Plant response rating (visual injury vs untreated controls),[7]; Rate 250 g/ha,0
same,Plant response rating (visual injury vs untreated controls),[7]; Rate 1000 g/ha,0
same,"Plant response rating, Pigweed",[8]; [17],70
same,"Plant response rating, Pigweed",[8]; [18],90
same,"Plant response rating, Lambsquarters",[9]; [17],80
same,"Plant response rating, Lambsquarters",[9]; [18],100
same,"Plant response rating, Surinam grass",[10]; [17],0
same,"Plant response rating, Surinam grass",[10]; [18],20
same,"Plant response rating, Crabgrass",[11]; [17],0
same,"Plant response rating, Crabgrass",[11]; [18],40
same,"Plant response rating, Velvetleaf",[12]; [17],0
same,"Plant response rating, Velvetleaf",[12]; [18],0
same,"Plant response rating, Cocklebur",[13]; [17],0
same,"Plant response rating, Cocklebur",[13]; [18],30
same,"Plant response rating, Blackgrass",[14]; [17],0
same,"Plant response rating, Blackgrass",[14]; [18],0
same,"Plant response rating, Foxtail, Giant",[15]; [17],0
same,"Plant response rating, Foxtail, Giant",[15]; [18],30
same,"Plant response rating, Morningglory",[16]; [17],0
same,"Plant response rating, Morningglory",[16]; [18],30
CCC(C)c1nn(C2CCN(c3cccc(C(F)(F)F)c3)C2=O)cc1Cl (stereo not shown) [Compound 13],"Plant response rating, Rice",rice (Oryza saliva),0
same,"Plant response rating, Flatsedge",[1],0
same,"Plant response rating, Ducksalad",[2],0
same,"Plant response rating, Barnyardgrass",[3],0
same,Plant response rating (visual injury vs untreated controls),[4]; Rate 500 g/ha,0
same,Plant response rating (visual injury vs untreated controls),[4]; Rate 2000 g/ha,0
same,Plant response rating (visual injury vs untreated controls),[5]; Rate 500 g/ha,0
same,Plant response rating (visual injury vs untreated controls),[5]; Rate 2000 g/ha,0
same,Plant response rating (visual injury vs untreated controls),[6]; Rate 500 g/ha,20
same,Plant response rating (visual injury vs untreated controls),[6]; Rate 2000 g/ha,70
same,Plant response rating (visual injury vs untreated controls),[7]; Rate 500 g/ha,0
same,Plant response rating (visual injury vs untreated controls),[7]; Rate 2000 g/ha,0
same,"Plant response rating, Lambsquarters",[9]; [17],0
same,"Plant response rating, Lambsquarters",[9]; [18],0
same,"Plant response rating, Surinam grass",[10]; [17],0
same,"Plant response rating, Surinam grass",[10]; [18],0
same,"Plant response rating, Crabgrass",[11]; [17],60
same,"Plant response rating, Crabgrass",[11]; [18],60
same,"Plant response rating, Velvetleaf",[12]; [17],0
same,"Plant response rating, Velvetleaf",[12]; [18],0
same,"Plant response rating, Cocklebur",[13]; [17],0
same,"Plant response rating, Cocklebur",[13]; [18],0
same,"Plant response rating, Blackgrass",[14]; [17],0
same,"Plant response rating, Blackgrass",[14]; [18],0
same,"Plant response rating, Foxtail, Giant",[15]; [17],0
same,"Plant response rating, Foxtail, Giant",[15]; [18],0
same,"Plant response rating, Morningglory",[16]; [17],0
same,"Plant response rating, Morningglory",[16]; [18],70
CC(C)(C)c1ccn(C2OCN(c3cccc(C(F)(F)F)c3)C2=O)n1 (stereo not shown) [compound 9],"Plant response rating, Rice",rice (Oryza saliva),100
same,"Plant response rating, Flatsedge",[1],100
same,"Plant response rating, Ducksalad",[2],100
same,"Plant response rating, Barnyardgrass",[3],100
same,Plant response rating (visual injury vs untreated controls),[4]; Rate 500 g/ha,30
same,Plant response rating (visual injury vs untreated controls),[4]; Rate 2000 g/ha,100
same,Plant response rating (visual injury vs untreated controls),[5]; Rate 500 g/ha,80
same,Plant response rating (visual injury vs untreated controls),[5]; Rate 2000 g/ha,90
same,Plant response rating (visual injury vs untreated controls),[6]; Rate 500 g/ha,20
same,Plant response rating (visual injury vs untreated controls),[6]; Rate 2000 g/ha,80
same,Plant response rating (visual injury vs untreated controls),[7]; Rate 500 g/ha,20
same,Plant response rating (visual injury vs untreated controls),[7]; Rate 2000 g/ha,10
same,"Plant response rating, Pigweed",[8]; [19],70
same,"Plant response rating, Pigweed",[8]; [20],80
same,"Plant response rating, Lambsquarters",[9]; [19],70
same,"Plant response rating, Lambsquarters",[9]; [20],80
same,"Plant response rating, Surinam grass",[10]; [19],0
same,"Plant response rating, Surinam grass",[10]; [20],0
same,"Plant response rating, Crabgrass",[11]; [19],0
same,"Plant response rating, Crabgrass",[11]; [20],0
same,"Plant response rating, Velvetleaf",[12]; [19],0
same,"Plant response rating, Velvetleaf",[12]; [20],0
same,"Plant response rating, Cocklebur",[13]; [19],10
same,"Plant response rating, Cocklebur",[13]; [20],20
same,"Plant response rating, Blackgrass",[14]; [19],0
same,"Plant response rating, Blackgrass",[14]; [20],0
same,"Plant response rating, Foxtail, Giant",[15]; [19],0
same,"Plant response rating, Foxtail, Giant",[15]; [20],0
same,"Plant response rating, Morningglory",[16]; [19],0
same,"Plant response rating, Morningglory",[16]; [20],10
